Laboratory results as given in patent publication US11432547B2, “Inhibitors of GRB2-associated binding protein 1 (GAB1) and methods of treating cancer using the same” (Arizona Board of Regents on Behalf of the University of …, priority 2014, dated 2022).
Several values for one entry are separate records, joined by “and”; a condition that tells them apart may be missing. Equal values may be shown once. Read-outs that look alike come from different tables or passages of the source.

What was measured:
[1] = tested on: GAB1 Y627 phosphorylation; experiment: Inhibition of GAB1 Y627 phosphorylation in T47D cells; type: cell-based; conditions: Homo sapiens, Y627, 20 μM compound 4 hr, HGF stimulated, read-out: % pGAB1 inhibition
Experimental: For all biological assays, hit compounds were added at 20 μM concentration directly into the culture media of the cells for 4 hr following a 16 hr incubation of T47D cells without FBS. Cells were stimulated with HGF for 20 min at 50 ng/ml. Following this treatment, cells were lysed and equal amounts of total cell lysate were loaded on a pSer^312-IRS-1/Total IRS-1 Meso Scale Discovery plate as described by the manufacturer. The plate was read using a Sector™Imager 2400A instrument (Meso Scale Discovery protein profiling system, Gaithersburg, Md.). For the measurement of GAB1 phosphorylation, T47D cells were treated as for the phosphorylation of IRS1 evaluation. […] Each experiment was performed at least three times.

[2] = tested on: T47D breast cancer cell line; experiment: Cellular proliferation assay (MTT), T47D; type: cell-based, human; conditions: for IC50: Homo sapiens, T47D, 96 h, 4 days growth, MTT, IA: Inactive
Experimental: (§1) Two human breast cancer Cell lines and one normal breast cell line were used for this study: T47D ductal missing highlighted section in original pg. 26Type Culture Collection, Rockville, Md.). T47D and MDA-MB-231 cells were maintained in bulk culture in Dulbecco's modified Eagle medium (DMEM) supplemented with 10% heat-inactivated fetal bovine serum (FBS), 4.5 g/L glucose, 100 U/mL penicillin and […] streptomycin in a 5% CO2 atmosphere. MCF-10A cells were maintained in MEGM with other conditions same as the cancer cell lines. […] Cells were confirmed to be mycoplasma free by testing them with an ELISA kit (Roche-Boehringer Mannheim, Indianapolis, Ind.). The hit compounds were freshly prepared in DMSO at a stock concentration of 10 mM. For the evaluation of cellular proliferation, a standard 96-well micro-cytotoxicity assay was performed as described in reference. Briefly, the assay was set up by plating cells at 5,000-10,000 cells per well (depending on cell doubling time) for a growth period of 4 days. The identified hits were added directly to the media, dissolved in DMSO at various concentrations ranging from 1 to 200 μM. The endpoint was spectrophotometric determination of the reduction of 3-(4,5-dimethylthiazol-2-yl)-2,5-diphenyltetrazolium bromide. All assays were performed in triplicates.

GAB1 PH domain = molecular target: T1, GAB1 PH domain (Homo sapiens, UniProt Q13480); experiment: SPR binding assay, GAB1 PH domain; conditions: for Exp. ΔGbind: GAB1, derived from experimental KD or Ki, RT ln(KD)
T1 sequence (Q13480 5-116 limits assumed): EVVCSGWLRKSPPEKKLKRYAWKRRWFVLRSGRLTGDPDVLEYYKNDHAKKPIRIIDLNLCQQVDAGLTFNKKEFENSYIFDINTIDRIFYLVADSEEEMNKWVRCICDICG

[3] = tested on: MDA-MB-231 breast cancer cell line; experiment: Cellular proliferation assay (MTT), MDA-MB-231; type: cell-based, human; conditions: for IC50: Homo sapiens, MDA-MB-231, 96 h, 4 days growth, MTT, IA: Inactive
Experimental: as §1

IRS1 PH domain = molecular target: T2, IRS1 PH domain (Homo sapiens, UniProt P35568); experiment: SPR binding assay, IRS1 PH domain (selectivity); conditions: derived from experimental KD, RT ln(KD)
T2 sequence (P35568 12-115 limits assumed): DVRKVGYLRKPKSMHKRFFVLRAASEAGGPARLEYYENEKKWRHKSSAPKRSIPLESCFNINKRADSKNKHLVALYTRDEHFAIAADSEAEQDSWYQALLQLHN
Experimental: The DNA sequences of human GAB1 and IRS1 PH domain (IRS1 is for selectivity evaluation) were cloned into pGEX-4T1 inducible bacterial expression plasmid (GeneStorm, Invitrogen, Carlsbad, Calif.) transformed into BL21 (DE3) E. Coli. Expression and purification of the recombinant proteins were performed. Binding assays were performed using a Biacore 2000 instrument with the Biacore Control Software v3.2 and BIAevaluation v4.1 analysis software (Biacore, Piscataway, N.J.). Briefly, the PH domain GST-fusion proteins were immobilized on a CMS Sensorchip (Biacore BR-1000-12) using Biacore's Amine Coupling Kit (Biacore BR-1000-50) to a level of 10,000 Response units (RUs). Small molecule analytes at concentrations ranging from one tenth to ten times the predicted KD were injected at a high flow rate (30 μL/min). Dimethylsulfoxide (DMSO) concentrations in all samples and running buffer were 1% (v/v) or less. […] The inventors did triplicate SPR assays for each concentration.

[4] = tested on: MCF-10A breast epithelial cell line; experiment: Cellular proliferation assay, MCF-10A; type: cell-based, human; conditions: data not shown
Experimental: Two human breast cancer Cell lines and one normal breast cell line were used for this study: T47D ductal missing highlighted section in original pg. 26Type Culture Collection, Rockville, Md.). T47D and MDA-MB-231 cells were maintained in bulk culture in Dulbecco's modified Eagle medium (DMEM) supplemented with 10% heat-inactivated fetal bovine serum (FBS), 4.5 g/L glucose, 100 U/mL penicillin and […] streptomycin in a 5% CO2 atmosphere. MCF-10A cells were maintained in MEGM with other conditions same as the cancer cell lines. Cells were passaged using 0.25% trypsin and 0.02% EDTA. Cells were confirmed to be mycoplasma free by testing them with an ELISA kit (Roche-Boehringer Mannheim, Indianapolis, Ind.). The hit compounds were freshly prepared in DMSO at a stock concentration of 10 mM. For the evaluation of cellular proliferation, a standard 96-well micro-cytotoxicity assay was performed as described in reference. Briefly, the assay was set up by plating cells at 5,000-10,000 cells per well (depending on cell doubling time) for a growth period of 4 days. The identified hits were added directly to the media, dissolved in DMSO at various concentrations ranging from 1 to 200 μM. The endpoint was spectrophotometric determination of the reduction of 3-(4,5-dimethylthiazol-2-yl)-2,5-diphenyltetrazolium bromide. All assays were performed in triplicates.

MDA-MB-468 cell line = experiment: Cellular proliferation assay, MDA-MB-468; type: cell-based; conditions: Homo sapiens, printed in MDA-MB-231 column with ** footnote, read-out: IC50 (μM), MDA-MB-468 cell line used
GAB2 PH domain = GAB2 PH domain (Homo sapiens, UniProt Q9UQC2); experiment: Follow-up experiments, GAB2 PH domain; type: binding
Sequence of GAB2 PH domain (Q9UQC2 6-117 limits assumed): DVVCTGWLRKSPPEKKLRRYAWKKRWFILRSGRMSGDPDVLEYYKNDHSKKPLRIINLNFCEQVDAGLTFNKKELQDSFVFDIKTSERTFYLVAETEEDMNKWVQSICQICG

[5] = competitive binding vs PtdIns(3,4,5)P3 liposomes, values with asterisk, read-out: Kn or Ki (μM) GAB1, *Ki measurement

Structure (SMILES)	IC50 [2] [µM]	IC50 [3] [µM]	inhibition at 20 µM [1] [%]	also measured
CCCCCCCCCCCCCCCCCCOC[C@H](COP(=O)(O)OC1C(O)[C@@H](O)C(O)C[C@H]1O)OC (stereo partly drawn) [DPIEL, reference compound]	–	–	72	–
Cc1nc(-c2cnc(S(=O)(=O)N3CCN(C4c5ccccc5-c5ccccc54)CC3)s2)cs1 [GAB-003]	13.9 ± 0.6	85.2 ± 7.2	14	–
O=c1[nH]nc(SCc2csc(-c3ccccc3)n2)n1Cc1ccco1 [GAB-004]	19.4 ± 2.9	66.6 ± 4.6	81	Exp. ΔGbind (GAB1 PH domain): -7.78 kcal/mol
Cc1cc2ncc(-c3cnc(SCCS(=O)(=O)c4ccc(Cl)cc4)nc3)c(C)n2n1 [GAB-006]	101 ± 1.8	–	16	–
CS(=O)(=O)CCSc1ncccc1C(=O)Sc1ccc(Cl)cc1Cl [GAB-007]	20.1 ± 4.3	4.6 ± 0.7	53	Exp. ΔGbind (IRS1 PH domain): -7.93 kcal/mol; Exp. ΔGbind (GAB1 PH domain): -6.01 kcal/mol; Ki (GAB1 PH domain; SPR direct binding, values without asterisk, NB: No Binding, read-out: Kn or Ki (μM) GAB1): 42.3 ± 8.9 µM
Cn1c(Cc2ccsc2)nnc1SCC(=O)Nc1cc(Cl)cc(Cl)c1 [GAB-011]	> 200	> 200	24	–
COc1cc(NS(=O)(=O)c2ccc(NS(=O)(=O)c3c(C)noc3C)cc2)nc(OC)n1 [GAB-013]	> 200	> 200	27	toxicity to MCF-10A at 100 μM [4]: toxic; killing of T47D at 50 μM [2]: did not effectively kill; killing of MDA-MB-231 at 50 μM [3]: did not effectively kill
Cc1nnc(NS(=O)(=O)c2ccc(NS(=O)(=O)c3ccc4ccccc4c3)cc2)s1 [GAB-014]	178 ± 3.9	–	42	IC50 (MDA-MB-468 cell line): 69.9 ± 0.1 µM
CCCCCCCCCCCCc1ccc(S(=O)(=O)Nc2nnc(CC(=O)O)s2)cc1 [GAB-015]	125 ± 5.4	–	–	inhibition at 20 µM ([1]; T47D, 4 h): 77%; Ki (GAB1 PH domain; [5]): 13.1 ± 1.5 µM
CCCCCCCCCCCCc1ccc(S(=O)(=O)Nc2nnc(CC(=O)OCC)s2)cc1 [GAB-016]	–	–	–	targeting of GAB2 PH domain (GAB2 PH domain): targets GAB2 PH domain; inhibition at 20 µM ([1]; T47D, 4 h): > 80%; Exp. ΔGbind (IRS1 PH domain): -9.38 kcal/mol; Exp. ΔGbind (GAB1 PH domain): -8.31 kcal/mol
CCCCCCCCCCCCc1ccc(S(=O)(=O)Nc2nnc(C(=O)OCC)s2)cc1 [GAB-017]	–	–	–	inhibition at 20 µM ([1]; T47D, 4 h): > 80%; Exp. ΔGbind (GAB1 PH domain): -8.47 kcal/mol
CCCCCCCCCCCCc1ccc(S(=O)(=O)Nc2nnc(S(N)(=O)=O)s2)cc1 [GAB-018]	185 ± 2.5	–	–	inhibition at 20 µM ([1]; T47D, 4 h): 71%; killing of T47D at 50 μM [2]: did not effectively kill; Ki (GAB1 PH domain; [5]): 36.6 ± 5 µM; killing of MDA-MB-231 at 50 μM [3]: did not effectively kill
CCc1ccc(C(=O)OC)cc1CSc1nnc(-c2ccc(C(F)(F)F)cc2)n1Cc1ccoc1 [GAB-019]	39.4 ± 6.2	–	91	–
CCCCCCCCCCCCc1ccc(S(=O)(=O)Nc2nncs2)cc1 [GAB-020]	–	–	87	–

Second part, led by results:

IC50 [2] [µM]	IC50 [3] [µM]	Structure (SMILES)	inhibition at 20 µM [1] [%]	also measured
23.7 ± 2.7	40.3 ± 1.3	O=S(=O)(NCc1csc2ccc(Cl)cc12)c1cc(S(=O)(=O)c2ccccc2)cs1 [GAB-001]	55	Exp. ΔGbind (GAB1 PH domain): -6.91 kcal/mol; Ki (GAB1 PH domain; [5]): 9.4 µM and 9.38 µM
138 ± 6.9	143 ± 11.6	Cn1cnc(S(=O)(=O)Nc2ccccc2SCCS(=O)(=O)c2ccc(Cl)cc2)c1 [GAB-002]	32	–
> 200	> 200	CS(=O)(=NS(=O)(=O)c1ccc(-c2ccccn2)s1)c1ccc(Cl)cc1 (stereo not drawn) [GAB-005]	6	–
43.2 ± 3.2	> 200	O=S(=O)(NCc1csc(-c2cccs2)n1)c1ccc(N2CCOCC2)nc1 [GAB-008]	8	–
97.6 ± 6.1	163 ± 6	Cc1noc(C)c1NC(=O)NCc1csc(-c2cccs2)n1 [GAB-009]	38	–
23.8 ± 4.2	66 ± 4.4	Cc1onc(-c2ccccc2)c1-c1nc(CSc2nc3ccccc3[nH]2)no1 [GAB-010]	92	Exp. ΔGbind (IRS1 PH domain): -9.51 kcal/mol
119 ± 3.6	> 200	O=C(O)c1ccccc1C(=O)Nc1ccccc1SCCS(=O)(=O)c1ccc(Cl)cc1 [GAB-012]	43	toxicity to MCF-10A at 100 μM [4]: toxic; killing of T47D at 50 μM [2]: did not effectively kill; killing of MDA-MB-231 at 50 μM [3]: did not effectively kill
